# How the values were obtained:
# Format in all cases: physicochemical
# [1] = Dynamic Vapor Sorption (DVS) analysis; conditions: from 0% RH to 80% RH, 25° C.
# Protocol: The dynamic vapor sorption (DVS) instrument involved herein is Q5000TGA from TA Instruments; detection conditions: a platinum crucible, a protective atmosphere of nitrogen, a gas flow rate of 10 mL/min; and the following detection method: [table] 5. Dynamic Vapor Sorption (DVS) Analysis of Said Crystalline Form A The determination was carried out using the aforementioned instruments, determination methods, operating conditions, and parameters.
# [2] = Thermogravimetric Analysis (TGA)
# Protocol: The thermogravimetric analyzer (TGA) involved herein is Q500TGA from TA Instruments; detection conditions: a platinum crucible, a protective atmosphere of nitrogen, a gas flow rate of 40 mL/min; and the following detection method: a Hi-Res sensitivity of 3.0, ramp 10.00° C./min, res 5.0 to 150.00° C., and ramp 10.00° C./min to 350° C. 4. Thermogravimetric Analysis (TGA) of Said Crystalline Form A The determination was carried out using the aforementioned instruments, determination methods, operating conditions, and parameters.
# [3] = Stability test of Crystalline Form A (XRD and DSC, Day 0 / Day 10); conditions: for change of crystalline form (XRD test): within 10 days
# Protocol: Sample and experimental preparation: the Crystalline Form A as prepared in Example 2 was taken as a sample; a proper amount of the sample was weighted and placed on a watch glass to form a thin layer of about 3˜5 mm in thickness.
# Experimental conditions: conventional (sealed and kept in darkness at 25° C.), long-term (uncovered and kept in darkness with −60% RH at 25° C.), and accelerated (uncovered and kept in darkness with −75% RH at 40° C.) conditions.
# Detection time: Day 0, Day 10.
# Detected items: crystalline forms (XRD test), and melting points (DSC test).
smiles,measurement,setting,value
"[2H]C([2H])(CCS(=O)(=O)O)NC(=O)[C@@H](N)C(C)C [Crystalline Form A, 3-((L-valyl)amino)-3,3-dideuterium-1-propanesulfonic acid]",hygroscopicity class (DVS determination criteria),[1],slightly hygroscopic
same,weight change (DVS isotherm),[1],about 0.3 wt %
same,weight loss (TGA),[2]; before 120° C.,about 0.9 wt %
same,decomposition temperature (TGA),"[2]; ramp 10° C./min, nitrogen",about 326 °C
same,variation of melting point (DSC test),[3],±1 °C
same,change of crystalline form (XRD test),"[3]; accelerated: uncovered, kept in darkness with −75% RH at 40° C.",no change was detected
same,change of crystalline form (XRD test),"[3]; conventional: sealed, kept in darkness at 25° C.",no change was detected
same,change of crystalline form (XRD test),"[3]; long-term: uncovered, kept in darkness with −60% RH at 25° C.",no change was detected
